Marks after values point to notes of the source that are not given here.
Assays:
[1] = tested on: mice; experiment: General pharmacological study in mice; type: in vivo
[2] = tested on: rats with beta-amyloid induced senile dementia; experiment: Step-down test, beta-amyloid induced senile dementia rats; type: in vivo, rat; details: 2.8 mg/kg, P<0.05
[3] = tested on: rats with common carotid artery occlusion-induced vascular dementia; experiment: Brain pathological examination, common carotid artery occlusion-induced vascular dementia rats; type: in vivo, rat; details: 1.4 mg/kg and 2.8 mg/kg
[4] = Physical and chemical stability (XRPD, HPLC); type: physicochemical
Protocol: • (1) The physical and chemical stability evaluations were performed after Crystal Form A was placed in a closed condition at 80° C. for 24 hours. • (2) The physical and chemical stability evaluations were performed after Crystal Form A was placed in an open condition at 25° C./60% relative humidity and 40° C./75% relative humidity respectively for one week.
The physical and chemical stabilities of the samples were tested by XRPD and HPLC.

[5] = tested on: rats with beta-amyloid induced senile dementia; experiment: Water maze test, beta-amyloid induced senile dementia rats; type: in vivo, rat; details: for adopted strategy for reaching the platform (the peripheral type and the random type %) / orientation angle for reaching the platform / speed for reaching the platform / swimming path length for reaching the platform / time for reaching the platform: succinate; for orientation angle for reaching the platform / speed for reaching the platform / swimming path length for reaching the platform / time for reaching the platform: x ± s
[6] = 0.7, 1.4 and 2.8 mg/kg, Day 7, P<0.05 or P<0.01
[7] = Day 1, 0.7 mg/kg intragastric, 0.7 mg/kg
[8] = Day 1, 1.4 mg/kg intragastric, 1.4 mg/kg
[9] = Day 1, 2.8 mg/kg intragastric, 2.8 mg/kg
[10] = Day 2, 0.7 mg/kg intragastric, 0.7 mg/kg
[11] = Day 2, 1.4 mg/kg intragastric, 1.4 mg/kg
[12] = Day 2, 2.8 mg/kg intragastric, 2.8 mg/kg
[13] = Day 3, 0.7 mg/kg intragastric, 0.7 mg/kg
[14] = Day 3, 1.4 mg/kg intragastric, 1.4 mg/kg
[15] = Day 3, 2.8 mg/kg intragastric, 2.8 mg/kg

Compound: Nc1c2c(nc3c1CCCC3)CCCC2.O=C(O)CCC(=O)O [Crystal Form A, 9-amino-1,2,3,4,5,6,7,8-octahydroacridine succinate]
- general state, autonomous activity and coordinated movement of the mice ([1]; 4, 8, 16 mg/kg once intragastric): no significant influence
- sleep number of animals with subthreshold dose of pentobarbital sodium ([1]; 4, 8 and 16 mg/kg once intragastric): no obvious influence
- step-down error number vs model group ([2]; Day 1 and Day 2): obviously reduced
- error latency vs model group ([2]; Day 2): obviously prolonged
- pathological change of the common carotid artery occlusion-induced vascular dementia [3]: could relieve the pathological change
- crystal form after storage (XRPD) ([4]; 80° C. closed 24 hours, 25° C./60% relative humidity and 40° C./75% relative humidity open one week): unchanged
- chemical purity after storage (HPLC) ([4]; all three test conditions: 80° C. closed 24 hours, 25° C./60% RH and 40° C./75% RH open one week): unchanged
- latent period for reaching the platform vs model group ([5]; 0.7 mg/kg, Day 1, P<0.05): obviously shortened
- latent period for reaching the platform vs model group ([5]; 1.4 mg/kg, Day 1 to Day 6, P<0.05 or P<0.01): obviously shortened
- swimming path length for reaching the platform vs model group ([5]; 1.4 mg/kg, Day 3 and Day 5, P<0.05): obviously shortened
- percentage of the swimming path length in the platform area quadrants to the total swimming path length vs model group ([5]; 1.4 mg/kg, Day 7, P<0.05): obviously increased
- residence time in the platform quadrants vs model group ([5]; 1.4 mg/kg, Day 7, P<0.05): obviously increased
- orientation angle vs model group ([5]; 2.8 mg/kg, Day 2, Day 3, Day 5 and Day 6, P<0.05 or P<0.01): obviously decreased
- latent period for reaching the platform vs model group ([5]; 2.8 mg/kg, Day 2 to Day 6, P<0.05 or P<0.01): obviously shortened
- swimming path length for reaching the platform vs model group ([5]; 2.8 mg/kg, Day 5 and Day 6, P<0.05): obviously shortened
- swimming speed vs model group ([5]; 0.7, 1.4 and 2.8 mg/kg, Day 1, P<0.05): obviously increased
- average speed and orientation angle vs model group ([5]; 0.7, 1.4 and 2.8 mg/kg, Day 7): not obviously changed
- number of rats crossing the platform within 2 minutes vs model group [5, 6]: obviously increased
- residence time on the platform vs model group [5, 6]: obviously increased
- conversion from the peripheral type and the random type to the tendency type and the linear type in the strategy for looking for the platform ([5]; 0.7, 1.4 and 2.8 mg/kg, P<0.05 or P<0.01): obviously increased
- orientation angle vs model group ([5]; 0.7 and 1.4 mg/kg, Day 2, P<0.05): obviously decreased
- adopted strategy for reaching the platform (the peripheral type and the random type %) [5, 7]: 87.50%
- orientation angle for reaching the platform [5, 7]: 62.79 ± 19.80 °
- speed for reaching the platform [5, 7]: 22.41 ± 7.84 cm/s
- swimming path length for reaching the platform [5, 7]: 1169.52 ± 985.73 cm
- time for reaching the platform [5, 7]: 51.79 ± 26.01 s
- adopted strategy for reaching the platform (the peripheral type and the random type %) [5, 8]: 92.50%
- orientation angle for reaching the platform [5, 8]: 77.42 ± 21.94 °
- speed for reaching the platform [5, 8]: 21.16 ± 5.82 cm/s
- swimming path length for reaching the platform [5, 8]: 1022.59 ± 558.57 cm
- time for reaching the platform [5, 8]: 47.00 ± 19.96 s
- adopted strategy for reaching the platform (the peripheral type and the random type %) [5, 9]: 95.50%
- orientation angle for reaching the platform [5, 9]: 61.45 ± 13.71 °
- speed for reaching the platform [5, 9]: 19.76 ± 2.88 cm/s
- swimming path length for reaching the platform [5, 9]: 1215.28 ± 534.19 cm
- time for reaching the platform [5, 9]: 65.22 ± 26.94 s
- adopted strategy for reaching the platform (the peripheral type and the random type %) [5, 10]: 68.75%
- orientation angle for reaching the platform [5, 10]: 48.33 ± 25.33 °
- speed for reaching the platform [5, 10]: 28.34 ± 10.42 cm/s
- swimming path length for reaching the platform [5, 10]: 762.15 ± 878.65 cm
- time for reaching the platform [5, 10]: 29.20 ± 28.52 s
- adopted strategy for reaching the platform (the peripheral type and the random type %) [5, 11]: 77.50%
- orientation angle for reaching the platform [5, 11]: 53.95 ± 19.36 °
- speed for reaching the platform [5, 11]: 24.65 ± 5.95 cm/s
- swimming path length for reaching the platform [5, 11]: 657.63 ± 419.44 cm
- time for reaching the platform [5, 11]: 29.60 ± 18.83 s
- adopted strategy for reaching the platform (the peripheral type and the random type %) [5, 12]: 67.50* %
- orientation angle for reaching the platform [5, 12]: 42.58 ± 17.57 °
- speed for reaching the platform [5, 12]: 23.62 ± 5.04 cm/s
- swimming path length for reaching the platform [5, 12]: 717.16 ± 484.50 cm
- time for reaching the platform [5, 12]: 27.92 ± 18.96 s
- adopted strategy for reaching the platform (the peripheral type and the random type %) [5, 13]: 87.50%
- orientation angle for reaching the platform [5, 13]: 59.46 ± 34.15 °
- speed for reaching the platform [5, 13]: 25.56 ± 10.30 cm/s
- swimming path length for reaching the platform [5, 13]: 922.69 ± 927.53 cm
- time for reaching the platform [5, 13]: 39.88 ± 39.00 s
- adopted strategy for reaching the platform (the peripheral type and the random type %) [5, 14]: 70.50%
- orientation angle for reaching the platform [5, 14]: 49.79 ± 16.12 °
- speed for reaching the platform [5, 14]: 23.53 ± 5.74 cm/s
- swimming path length for reaching the platform [5, 14]: 359.75 ± 164.16 cm
- time for reaching the platform [5, 14]: 15.74 ± 5.83 s
- adopted strategy for reaching the platform (the peripheral type and the random type %) [5, 15]: 70.00%
- orientation angle for reaching the platform [5, 15]: 41.19 ± 18.30 °

Reference: patent US12215085B2 (priority 2019, dated 2025)
